PubChem BioAssay (NCI)
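At the GI50, growth is halved. TGI is the concentration that stops growth completely.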

Experiments:
Test in all cases: DTP human tumour cell line panel, 384-well format
SF-539 CNS = test system: SF-539 CNS
NCI/ADR-RES ovarian = test system: NCI/ADR-RES ovarian
ACHN renal = test system: ACHN renal
SK-MEL-28 melanoma = test system: SK-MEL-28 melanoma
CCRF-CEM leukemia = test system: CCRF-CEM leukemia
HS 578T breast = test system: HS 578T breast
NCI-H23 lung = test system: NCI-H23 lung
IGROV1 ovarian = test system: IGROV1 ovarian
OVCAR-8 ovarian = test system: OVCAR-8 ovarian
HCT-116 colon = test system: HCT-116 colon
SR leukemia = test system: SR leukemia
HL-60(TB) leukemia = test system: HL-60(TB) leukemia
MDA-MB-435 melanoma = test system: MDA-MB-435 melanoma
M14 melanoma = test system: M14 melanoma
SF-295 CNS = test system: SF-295 CNS
MALME-3M melanoma = test system: MALME-3M melanoma
T-47D breast = test system: T-47D breast
HOP-92 NSCLC = test system: HOP-92 NSCLC
SW-620 colon = test system: SW-620 colon
SN12C renal = test system: SN12C renal
RXF 393 renal = test system: RXF 393 renal
MDA-MB-231 breast = test system: MDA-MB-231 breast
SF-268 CNS = test system: SF-268 CNS
LOX IMVI melanoma = test system: LOX IMVI melanoma
UO-31 renal = test system: UO-31 renal
HOP-62 NSCLC = test system: HOP-62 NSCLC
HCT-15 colon = test system: HCT-15 colon
K-562 leukemia = test system: K-562 leukemia
HT29 colon = test system: HT29 colon
SNB-75 CNS = test system: SNB-75 CNS
UACC-62 melanoma = test system: UACC-62 melanoma
786-0 renal = test system: 786-0 renal
U251 glioblastoma = test system: U251 glioblastoma
NCI-H460 NSCLC = test system: NCI-H460 NSCLC
OVCAR-3 ovarian = test system: OVCAR-3 ovarian
A549 NSCLC = test system: A549 NSCLC
MCF7 breast = test system: MCF7 breast
NCI-H522 lung = test system: NCI-H522 lung
MDA-MB-468 breast = test system: MDA-MB-468 breast
RPMI-8226 leukemia = test system: RPMI-8226 leukemia
HCC-2998 colon = test system: HCC-2998 colon
EKVX NSCLC = test system: EKVX NSCLC
NCI-H226 lung = test system: NCI-H226 lung
SNB-19 CNS = test system: SNB-19 CNS
CAKI-1 renal = test system: CAKI-1 renal
UACC-257 melanoma = test system: UACC-257 melanoma
NCI-H322M lung = test system: NCI-H322M lung
SK-MEL-5 melanoma = test system: SK-MEL-5 melanoma
DU-145 prostate = test system: DU-145 prostate
KM12 colon = test system: KM12 colon
SK-OV-3 ovarian = test system: SK-OV-3 ovarian
BT-549 breast = test system: BT-549 breast
COLO 205 colon = test system: COLO 205 colon
PC-3 prostate = test system: PC-3 prostate
OVCAR-4 ovarian = test system: OVCAR-4 ovarian
TK-10 renal = test system: TK-10 renal
A498 renal = test system: A498 renal
MOLT-4 leukemia = test system: MOLT-4 leukemia

Q: For CN(C)CCCOc1ccc(-c2ccc3ncc4c(c3c2)n(C2CCOCC2)c(=O)n4C)cn1, which GI50 (SF-539 CNS) is on record?
A: 3.85 µM

Q: And the TGI (SF-539 CNS)?
A: > 100 µM

Q: What about the GI50 (NCI/ADR-RES ovarian) of the same molecule?
A: > 100 µM

Q: What about the TGI (NCI/ADR-RES ovarian) of the same molecule?
A: > 100 µM

Q: What about the GI50 (ACHN renal) of the same molecule?
A: 5.21 µM

Q: What about the TGI (ACHN renal) of the same molecule?
A: > 100 µM

Q: What about the GI50 (SK-MEL-28 melanoma) of the same molecule?
A: 5.73 µM

Q: And the TGI (SK-MEL-28 melanoma)?
A: > 100 µM

Q: What about the GI50 (CCRF-CEM leukemia) of the same molecule?
A: 1.95 µM

Q: What about the TGI (CCRF-CEM leukemia) of the same molecule?
A: 10 µM

Q: What about the GI50 (HS 578T breast) of the same molecule?
A: 1.47 µM

Q: What about the TGI (HS 578T breast) of the same molecule?
A: 4.14 µM

Q: And the GI50 (NCI-H23 lung)?
A: 8.22 µM

Q: What about the TGI (NCI-H23 lung) of the same molecule?
A: > 100 µM

Q: And the GI50 (IGROV1 ovarian)?
A: 1.17 µM

Q: What about the TGI (IGROV1 ovarian) of the same molecule?
A: 6.42 µM

Q: What about the GI50 (OVCAR-8 ovarian) of the same molecule?
A: 5.22 µM

Q: And the TGI (OVCAR-8 ovarian)?
A: > 100 µM

Q: And the GI50 (HCT-116 colon)?
A: 6.44 µM

Q: What about the TGI (HCT-116 colon) of the same molecule?
A: 55.7 µM

Q: What about the GI50 (SR leukemia) of the same molecule?
A: 0.172 µM

Q: And the TGI (SR leukemia)?
A: 0.445 µM

Q: And the GI50 (HL-60(TB) leukemia)?
A: 2.95 µM

Q: What about the TGI (HL-60(TB) leukemia) of the same molecule?
A: 11 µM

Q: And the GI50 (MDA-MB-435 melanoma)?
A: 6.28 µM

Q: And the TGI (MDA-MB-435 melanoma)?
A: > 100 µM

Q: What about the GI50 (M14 melanoma) of the same molecule?
A: 3.32 µM

Q: What about the TGI (M14 melanoma) of the same molecule?
A: > 100 µM

Q: And the GI50 (SF-295 CNS)?
A: 2.95 µM

Q: And the TGI (SF-295 CNS)?
A: > 100 µM

Q: And the GI50 (MALME-3M melanoma)?
A: 1.24 µM

Q: And the TGI (MALME-3M melanoma)?
A: 6.1 µM

Q: What about the GI50 (T-47D breast) of the same molecule?
A: 1.22 µM

Q: And the TGI (T-47D breast)?
A: 11.7 µM

Q: And the GI50 (HOP-92 NSCLC)?
A: 3.45 µM

Q: And the TGI (HOP-92 NSCLC)?
A: 20.2 µM

Q: And the GI50 (SW-620 colon)?
A: 4.91 µM

Q: And the TGI (SW-620 colon)?
A: > 100 µM

Q: And the GI50 (SN12C renal)?
A: 2.32 µM

Q: What about the TGI (SN12C renal) of the same molecule?
A: 32.8 µM

Q: What about the GI50 (RXF 393 renal) of the same molecule?
A: 5.05 µM

Q: What about the TGI (RXF 393 renal) of the same molecule?
A: > 100 µM

Q: What about the GI50 (MDA-MB-231 breast) of the same molecule?
A: 2.08 µM

Q: What about the TGI (MDA-MB-231 breast) of the same molecule?
A: > 100 µM

Q: What about the GI50 (SF-268 CNS) of the same molecule?
A: 4.23 µM

Q: What about the TGI (SF-268 CNS) of the same molecule?
A: > 100 µM

Q: And the GI50 (LOX IMVI melanoma)?
A: 2.45 µM

Q: What about the TGI (LOX IMVI melanoma) of the same molecule?
A: 14.5 µM

Q: And the GI50 (UO-31 renal)?
A: 4.78 µM

Q: And the TGI (UO-31 renal)?
A: > 100 µM

Q: And the GI50 (HOP-62 NSCLC)?
A: 3.81 µM

Q: And the TGI (HOP-62 NSCLC)?
A: > 100 µM

Q: And the GI50 (HCT-15 colon)?
A: 5.01 µM

Q: What about the TGI (HCT-15 colon) of the same molecule?
A: > 100 µM

Q: And the GI50 (K-562 leukemia)?
A: 7.55 µM

Q: And the TGI (K-562 leukemia)?
A: 30.6 µM

Q: And the GI50 (HT29 colon)?
A: 4.36 µM

Q: And the TGI (HT29 colon)?
A: 27.8 µM

Q: What about the GI50 (SNB-75 CNS) of the same molecule?
A: 2.76 µM

Q: And the TGI (SNB-75 CNS)?
A: > 100 µM

Q: What about the GI50 (UACC-62 melanoma) of the same molecule?
A: 4.33 µM

Q: What about the TGI (UACC-62 melanoma) of the same molecule?
A: 23.3 µM

Q: And the GI50 ([…]-0 renal)?
A: 5.99 µM

Q: And the TGI (786-0 renal)?
A: > 100 µM

Q: What about the GI50 (U251 glioblastoma) of the same molecule?
A: > 100 µM

Q: And the TGI (U251 glioblastoma)?
A: > 100 µM

Q: What about the GI50 (NCI-H460 NSCLC) of the same molecule?
A: 1.5 µM

Q: What about the TGI (NCI-H460 NSCLC) of the same molecule?
A: 96.2 µM

Q: And the GI50 (OVCAR-3 ovarian)?
A: 1.69 µM

Q: What about the TGI (OVCAR-3 ovarian) of the same molecule?
A: 4.86 µM

Q: What about the GI50 (A549 NSCLC) of the same molecule?
A: 3.91 µM

Q: What about the TGI (A549 NSCLC) of the same molecule?
A: > 100 µM

Q: And the GI50 (MCF7 breast)?
A: 1.91 µM

Q: And the TGI (MCF7 breast)?
A: > 100 µM

Q: And the GI50 (NCI-H522 lung)?
A: 3.48 µM

Q: What about the TGI (NCI-H522 lung) of the same molecule?
A: > 100 µM

Q: And the GI50 (MDA-MB-468 breast)?
A: 2.47 µM

Q: What about the TGI (MDA-MB-468 breast) of the same molecule?
A: 19.9 µM

Q: And the GI50 (RPMI-8226 leukemia)?
A: 0.738 µM

Q: And the TGI (RPMI-8226 leukemia)?
A: 2.39 µM

Q: What about the GI50 (HCC-2998 colon) of the same molecule?
A: 3.12 µM

Q: And the TGI (HCC-2998 colon)?
A: > 100 µM

Q: What about the GI50 (EKVX NSCLC) of the same molecule?
A: 2.39 µM

Q: What about the TGI (EKVX NSCLC) of the same molecule?
A: > 100 µM

Q: What about the GI50 (NCI-H226 lung) of the same molecule?
A: 3.73 µM

Q: What about the TGI (NCI-H226 lung) of the same molecule?
A: > 100 µM

Q: What about the GI50 (SNB-19 CNS) of the same molecule?
A: 22.9 µM

Q: What about the TGI (SNB-19 CNS) of the same molecule?
A: > 100 µM

Q: What about the GI50 (CAKI-1 renal) of the same molecule?
A: 1.45 µM

Q: What about the TGI (CAKI-1 renal) of the same molecule?
A: 6.38 µM

Q: What about the GI50 (UACC-257 melanoma) of the same molecule?
A: > 100 µM

Q: And the TGI (UACC-257 melanoma)?
A: > 100 µM

Q: What about the GI50 (NCI-H322M lung) of the same molecule?
A: 3.21 µM

Q: And the TGI (NCI-H322M lung)?
A: 36.7 µM

Q: And the GI50 (SK-MEL-5 melanoma)?
A: 2.23 µM

Q: And the TGI (SK-MEL-5 melanoma)?
A: > 100 µM

Q: What about the GI50 (DU-145 prostate) of the same molecule?
A: 4.92 µM

Q: And the TGI (DU-145 prostate)?
A: > 100 µM

Q: And the GI50 (KM12 colon)?
A: 2.67 µM

Q: And the TGI (KM12 colon)?
A: 26 µM

Q: And the GI50 (SK-OV-3 ovarian)?
A: 2.45 µM

Q: What about the TGI (SK-OV-3 ovarian) of the same molecule?
A: 71.9 µM

Q: And the GI50 (BT-549 breast)?
A: 3.56 µM

Q: What about the TGI (BT-549 breast) of the same molecule?
A: 30 µM

Q: What about the GI50 (COLO 205 colon) of the same molecule?
A: 2.17 µM

Q: And the TGI (COLO 205 colon)?
A: 13.5 µM

Q: What about the GI50 (PC-3 prostate) of the same molecule?
A: 1.73 µM

Q: And the TGI (PC-3 prostate)?
A: 12 µM

Q: What about the GI50 (OVCAR-4 ovarian) of the same molecule?
A: 7.94 µM

Q: And the TGI (OVCAR-4 ovarian)?
A: > 100 µM

Q: What about the GI50 (TK-10 renal) of the same molecule?
A: 3 µM

Q: What about the TGI (TK-10 renal) of the same molecule?
A: 49.5 µM

Q: And the GI50 (A498 renal)?
A: 2.54 µM

Q: And the TGI (A498 renal)?
A: > 100 µM

Q: And the GI50 (MOLT-4 leukemia)?
A: 1.39 µM

Q: And the TGI (MOLT-4 leukemia)?
A: 4.71 µM
